According to PMC8754130, “A Peptide from Budding Yeast GAPDH Serves as a Promising Antifungal against Cryptococcus neoformans” (Microbiology Spectrum, 2022):
Several values for one entry are separate records, joined by “and”; a condition that tells them apart may be missing. Equal values may be shown once.

How the values were obtained:
Cryptococcus neoformans = assay: organism not typed; conditions: 72 h, 37°C, three independent experiments
Experimental: (§1) The MIC of the peptide was determined using a standardized micro-broth dilution method with a panel of pathogenic yeast strains (C. albicans, […], C. neoformans, and C. gattii) and bacterial strains (Escherichia coli, Micrococcus luteus, Staphylococcus aureus, and Pseudomonas aeruginosa).
(§2) The value of the MIC was defined as the lowest concentration of drugs showing no yeast growth. The MIC was determined by three independent repeats, each repeat in quintuplicate.

[1] = Calcein leakage assay, fungal membrane mimic; conditions: 4 μM; Tris buffer pH 7.4; fluorescence 10 min after addition; 100% = Triton X-100; three independent experiments
Experimental: These experiments were performed as previously described ([34]). Briefly, phospholipid vesicles were prepared from POPC: POPE (at a ratio of 1:4), POPC/POPE/Erg (at a ratio of 5:4:3), and POPC with 40% cholesterol, which mimics the cell membranes of bacterial, fungal, and mammalian cells, respectively. The resulting lipid film was suspended in Tris buffer (20 mM Tris, 100 mM NaCl, and 40 mM calcein, pH 7.4). Extravehicular buffer containing lipid vesicles with entrapped calcein was read in a fluorimeter using excitation at 490 nm and emission at 520 nm. […] The 10% Triton X-100 was used to disrupt lipid vesicles for obtaining the maximum fluorescence intensity.

C. neoformans H99 cells [2] = assay: JC-10 mitochondrial membrane potential assay; type: cell-based, Cryptococcus neoformans; conditions: 8 μM, 37°C, 2 h; JC-10, flow cytometry; three experiments
Experimental: (§3) H99 cells were cultured in RPMI 1640 medium (Sigma, Shanghai) with 0.165 M MOPS (Sigma, Shanghai) overnight and diluted in fresh medium to an OD600 of 1. For the Annexin V-PI assay, the yeast protoplast preparation kit (BestBio, Shanghai) was used to prepare the protoplasts. […] The TUNEL assay was performed by using the Apoptosis Detection Kit (Yeasen, Shanghai) according to the manufacturer’s instructions. For JC-10 staining, H99 cells were stained by 30 μM JC-10 (Yeasen, Shanghai) and 0.02% Pluronic F-127(Beyotime, Shanghai) at 37°C for 30 min. The intracellular ROS was stained by the incubation with 5 μM H2DCFDA(MCE, Shanghai) at 37°C for 30 min. The stained samples were measured by BD FACSCalibur as described ([58]). The data were analyzed by FlowjoX. All experiments were repeated three times independently.

C. neoformans H99 cells [3] = assay: Time-killing experiment (killing kinetics); type: cell-based, Cryptococcus neoformans; conditions: 2.5 μM (MIC of melittin), over 4 h, 37°C, RPMI 1640, CFU counting; three independent experiments
Experimental: The time-killing experiment was performed as described ([17]). C. neoformans H99 cells were cultured in RPMI 1640 medium overnight, and the concentration was adjusted to 3 × 10^7 colony-forming units (CFU)/mL. […] Aliquots were taken out to wash and serially diluted 1:10 in RPMI 1640 medium to final concentration of nearly 300 CFU/mL, and plate on the YPD medium at the corresponding time points. After incubating at 37°C for 48 h, colonies were counted to calculate the survival rate. The percentage of CFU of growth control was set as 100%. The percentage of recovering CFU on plates was plotted against time. The data were obtained from three independent experiments.

[4] = tested on: C. neoformans H99 protoplasts; assay: Annexin V staining (phosphatidylserine exposure), flow cytometry; type: cell-based, Cryptococcus neoformans; conditions: 2.5 μM, 1 h; three independent experiments
Experimental: as §3

[5] = tested on: C. neoformans protoplasts; assay: Protoplast rupture experiment (microscopy); type: cell-based, Cryptococcus neoformans; conditions: 2.5 μM, 2 h; three experiments
Description: Many antimicrobial peptides form pores in cell membranes to kill cells ([38]). […] To test this hypothesis, C. neoformans protoplasts were adopted for cell rupture experiments. Because the cell walls were digested with enzymes, the unprotected protoplasts could be easily ruptured following peptide-induced pore formation within the cell membrane. Moreover, without the structural support of a cell wall, cell rupture could be clearly observed under the microscope.

[6] = tested on: C. neoformans H99 protoplasts; assay: PI staining of protoplasts, flow cytometry; type: cell-based, Cryptococcus neoformans; conditions: 2.5 μM, 1 h; around 30,000 protoplasts per treatment; three independent experiments
Experimental: as §3

[7] = tested on: ergosterol in the cell membrane of C. neoformans (H99) cells; assay: Filipin III staining of membrane ergosterol; type: cell-based, Cryptococcus neoformans; conditions: 1 h
Description: All fluorescent images were collected with the confocal microscope (Olympus IX81) at a magnification of ×100 (oil immersion). […] Images were taken using the same confocal microscope described above. […] The fluorescent images of mitochondria were acquired on the confocal microscope (Leica SP8). At least 200 cells per sample were categorized based on their tubular or fragmented mitochondria morphologies. To quantify the fluorescent staining of ergosterol by filipin III, H99 cells with different treatment were stained by filipin III as described ([37]). The fluorescent images were acquired by the IX81 confocal microscope described above. The ImageJ was used to measure the mean fluorescent intensity. The statistical analysis of fluorescent intensity was based on three independent experiments. In each experiment, at least 100 cells were counted in three different visual fields.

Aspergillus fumigatus = assay: MIC, micro-broth dilution (CLSI M27-A4); type: cell-based; conditions: Aspergillus fumigatus (YJ407), laboratory stock; three independent experiments
Experimental: as §1, §2

[8] = strain JEC21, RPMI 1640 + 0.165 M MOPS, lowest concentration showing no yeast growth
[9] = Cryptococcus neoformans, fzc9Δ, FLC-resistant strain derived from H99, RPMI 1640 + 0.165 M MOPS
[10] = Cryptococcus neoformans, gat5Δ, FLC-resistant strain derived from H99, RPMI 1640 + 0.165 M MOPS
[11] = Cryptococcus neoformans, liv4Δ, FLC-resistant strain derived from H99, RPMI 1640 + 0.165 M MOPS

Q: With OC(Cn1cncn1)(Cn1cncn1)c1ccc(F)cc1F [FLC, fluconazole] as the compound, how does the MIC (Cryptococcus neoformans; [8]) read?
A: The MIC was 6.5 µM.

Q: And the MIC (Cryptococcus neoformans; [9])?
A: Its MIC is over 26 µM.

Q: What about the MIC (Cryptococcus neoformans; [10]) of the same compound?
A: Its MIC is over 26 µM.

Q: What about the MIC (Cryptococcus neoformans; [11]) of the same compound?
A: The MIC was over 26 µM.

Q: And the MIC (Cryptococcus neoformans; fzc9Δ, FLC-resistant strain derived from H99, RPMI 1640 + 0.165 M MOPS)?
A: The MIC was over 8 µg/mL.

Q: And the MIC (Cryptococcus neoformans; gat5Δ, FLC-resistant strain derived from H99, RPMI 1640 + 0.165 M MOPS)?
A: The MIC was over 8 µg/mL.

Q: And the MIC (Cryptococcus neoformans; liv4Δ, FLC-resistant strain derived from H99, RPMI 1640 + 0.165 M MOPS)?
A: Its MIC is over 8 µg/mL.

Q: And the calcein leakage [1]?
A: The calcein leakage was “did not induce calcein leakage”.

Q: What does the source list for “IRIAINGFGRIGRPPPRPPPQRKDIEVVA [control peptide]”?
A: cells that lost their mitochondrial membrane potential (C. neoformans H99 cells [2]): ~5%; calcein leakage [1]: did not induce calcein leakage

Q: For CC[C@H](C)[C@H](NC(=O)CN)C(=O)NCC(=O)N[C@@H](C)C(=O)N[C@H](C(=O)N[C@@H](CC(C)C)C(=O)N[C@@H](CCCCN)C(=O)N[C@H](C(=O)N[C@@H](CC(C)C)C(=O)N[C@H](C(=O)N[C@H](C(=O)NCC(=O)N[C@@H](CC(C)C)C(=O)N1CCC[C@H]1C(=O)N[C@@H](C)C(=O)N[C@@H](CC(C)C)C(=O)N[C@H](C(=O)N[C@@H](CO)C(=O)N[C@@H](Cc1c[nH]c2ccccc12)C(=O)N[C@H](C(=O)N[C@@H](CCCCN)C(=O)N[C@@H](CCCNC(=N)N)C(=O)N[C@@H](CCCCN)C(=O)N[C@@H](CCCNC(=N)N)C(=O)N[C@@H](CCC(N)=O)C(=O)N[C@@H](CCC(N)=O)C(N)=O)[C@@H](C)CC)[C@@H](C)CC)[C@@H](C)O)[C@@H](C)O)C(C)C)C(C)C [melittin], which cells killed (C. neoformans H99 cells [3]) is on record?
A: The cells killed was about 70%.

Q: What about the “phosphatidylserine exposure (annexin V)” value [4] of the same compound?
A: The value was “almost no phosphatidylserine exposure”.

Q: What about the protoplasts ruptured [5] of the same compound?
A: Its protoplasts ruptured is about 80%.

Q: And the MIC (Cryptococcus neoformans; strain H99, RPMI 1640 + 0.165 M MOPS)?
A: The MIC was 2.5 μM and 7.12 μg/mL.

Q: And the PI-positive protoplasts [6]?
A: Its PI-positive protoplasts is about 70%.

Q: For C[C@@H]1[C@H](O)[C@@H](C)/C=C/C=C/C=C/C=C/C=C/C=C/C=C/[C@H](O[C@@H]2O[C@H](C)[C@@H](O)[C@H](N)[C@@H]2O)C[C@@H]2O[C@](O)(C[C@@H](O)C[C@@H](O)[C@H](O)CC[C@@H](O)C[C@@H](O)CC(=O)O[C@H]1C)C[C@H](O)[C@H]2C(=O)O [AmB, amphotericin B], which “filipin III signal” value ([7]; 1.1 μM) is on record?
A: Its value is “a decreased level of filipin III signal”.

Q: What about the MIC (Aspergillus fumigatus) of the same compound?
A: Its MIC is 0.4 µM and 0.37 µg/mL.

Q: What about the MIC (Cryptococcus neoformans; [8]) of the same compound?
A: Its MIC is 0.4 µM.

Q: And the MIC (Cryptococcus neoformans; Cryptococcus neoformans, atf1Δ, AmB-resistant strain derived from H99, RPMI 1640 + 0.165 M MOPS)?
A: The MIC was over 2.2 µM.

Q: And the MIC (Cryptococcus neoformans; [9])?
A: Its MIC is 1.1 µM and 1 µg/mL.

Q: And the MIC (Cryptococcus neoformans; Cryptococcus neoformans, fzc51Δ, AmB-resistant strain derived from H99, RPMI 1640 + 0.165 M MOPS)?
A: Its MIC is > 2.2 µM and > 2 µg/mL.

Q: What about the MIC (Cryptococcus neoformans; [10]) of the same compound?
A: The MIC was 1.1 µM and 1 µg/mL.

Q: What about the MIC (Cryptococcus neoformans; [11]) of the same compound?
A: Its MIC is 1.1 µM and 1 µg/mL.

Q: And the MIC (Cryptococcus neoformans; Cryptococcus neoformans, strain H99, RPMI 1640 + 0.165 M MOPS)?
A: The MIC was 1.1 µM and 1 µg/mL.

Q: And the MIC (Cryptococcus neoformans; atf1Δ, AmB-resistant strain derived from H99, RPMI 1640 + 0.165 M MOPS)?
A: Its MIC is over 2 µg/mL.

Q: With C[C@@H]1C/C=C/C=C/C=C/C=C/[C@H](O[C@@H]2O[C@H](C)[C@@H](O)[C@H](N)[C@@H]2O)C[C@@H]2O[C@](O)(C[C@@H](O)C[C@H]3O[C@@H]3/C=C/C(=O)O1)C[C@H](O)[C@H]2C(=O)O [natamycin] as the compound, how does the “filipin III signal” value ([7]; 15 μM) read?
A: The value was “a decreased level of filipin III signal”.
